The text below walks through data of patent publication US9517988B2 (Sichuan Haisco Pharmaceutical Co., Ltd., priority 2013, dated 2016).

In one data set the test system is Beagle dogs. The data set is described as follows: Haemodynamic effects in Beagle dogs. The format is in vivo. Conditions: for Dose required to produce the same anesthetic effect: Beagle dogs, intravenous emulsion for injection. The method, then:
Data of various indicators such as electrocardiogram, blood pressure and body temperature of the animals were continuously collected from about 3.5 hours before administration until 6 hours after administration.

The next data set relates to GABAA receptors. Conditions: CHO/GABAA; for EC50: enhancement of muscimol-induced GABAA receptor current, whole-cell patch-clamp. A general note: In patch-clamp work, channel activity is measured electrically.
The nature of data set [1]: Righting reflex experiment on mice. Conditions: both, ICR, mouse, in vivo; for MTD: intravenous; for LD50: iv. The method, then: (§1) LD5 (5% lethal dose): dose required to cause 5% of mice to die in a test.
(§2) If a normal animal was able to immediately turn its body to normal upright position after being pushed over or made lying on its back, such a reflex was determined as the righting reflex. Otherwise, loss of the righting reflex and the time of loss were recorded, and a reflex recovery time was recorded when the animal restored the righting reflex. The period from finishing of drug administration until loss of the righting reflex was recorded as the anesthesia induction time, and the period from loss of the righting reflex until recovery of the righting reflex was recorded as the anesthesia maintenance time.
(§3) TI (therapeutic index, i.e. LD50/ED50), SI (safety index, i.e. LD5/ED95).
(§4) MTD (maximum tolerated dose): the maximum dose able to cause 100% to loss the righting index without death.
(§5) Indicators such as median effective dose (ED50), median lethal dose (LD50), therapeutic index (TI, i.e. LD50/ED50), safety index (SI, i.e. LD5/ED95), anesthesia induction time, anesthesia maintenance time, and maximum tolerated dose (MTD) were used to evaluate the effect and safety of anesthesia. […] After adapting to the laboratory environment, laboratory animals were fasted for 12 hours. On the next day, administration was carried out at 10 mg/kg body weight. Upon intravenous injection, the time of loss of the righting reflex was recorded. The period from finishing of drug administration until loss of the righting reflex was recorded as the anesthesia induction time, and the period from loss of the righting reflex until recovery of the righting reflex was recorded as the anesthesia maintenance time. The anesthesia induction time and the anesthesia maintenance time were used to indicate how strong an anesthetic effect was. Meanwhile, the dose required to cause a 7-min anesthesia (HD7) was measured and used to evaluate relative efficacy.

The subject of data set [2] is ICR mice. As to the kind of experiment: Righting reflex experiment on mice. As to conditions: for ED50: Mus musculus, iv; for Anesthesia induction time / Anesthesia maintenance time / HD7: mice; for Anesthesia induction time / Anesthesia maintenance time: intravenous injection; for Anesthesia induction time: end of administration until loss of righting reflex; for Anesthesia maintenance time: loss until recovery of righting reflex; for HD7: dose required to cause a 7-min anesthesia; for SI: safety index, LD5/ED95, mice; for TI: therapeutic index, LD50/ED50, mice. The method, then:
as §1, §2, §3, §4, §5

Data set [3] in a line: Pharmacokinetic experiment on rats. In kind it is in vivo, SD rats. As to conditions: male, Sprague-Dawley, rat, plasma; Intravenous Injection into Rats (1 mg/kg). On the procedure:
3 male SD rats, each weighing 180 to 240 g, were fasted overnight with water access. A 1 mL/kg solution of the compound was formulated with 10% DMA, 20% solutol HS-15 (30%, w/v) and 70% physiological saline. Blood was sampled before administration and 2 min, 4 min, 8 min, 12 min, 15 min, 30 min, 1 h, 1.5 h and 2 h after administration. Blood samples were centrifuged at 5500 rpm for 10 min, and plasma was collected and stored at −40° C. 10 μl rat plasma from each time point was added to a 200 μl acetonitrile solution containing an internal standard and mixed, followed by 1-min vortexing and 18-min centrifugation at 3700 rpm. Then 70 μl supernatant was mixed with 70 μl water, and 10 μl of the mixture was analyzed by LC-MS/MS. Major pharmacokinetic parameters were subjected to a non-compartment analysis with the software WinNonlin 6.3.

The nature of data set [4]: Pharmacokinetic analysis with prodrugs in rats. As to conditions: male, Sprague-Dawley, rat, plasma. In kind it is in vivo, SD rats. The method, then:
3 male SD rats, each weighing 180 to 240 g, were fasted overnight with water access. After a single intravenous administration of a prodrug at 10 mg/kg to rats, the plasma concentrations of the prodrug and the active form were each measured by LC-MS/MS, and the pharmacokinetic parameters were analyzed.

A short description of data set [5]: Righting reflex experiment on mice with prodrugs. The format is in vivo. As to conditions: both sexes, ICR, mouse, in vivo, mice; for MTD: intravenous, prodrugs; for LD50: intravenous injection, prodrugs in physiological saline. On the procedure: (§6) After adapting to the laboratory environment, the SPF-grade ICR mice were fasted for 12 hours.
The test system of data set [6] is ICR mice. As to the kind of experiment: Righting reflex experiment on mice with prodrugs. In kind it is in vivo. Conditions: for ED50: Mus musculus, prodrugs formulated with physiological saline, read-out: ED50; for ED50 / Anesthesia induction time / Anesthesia maintenance time: intravenous injection; for SI: safety index, LD5/ED95, mice; for TI: therapeutic index, LD50/ED50, mice. On the procedure: as §6

Data set [7] in a line: Efficacy experiment on rats with prodrugs. In kind it is in vivo. As to conditions: both sexes, Sprague-Dawley, rat, in vivo, intravenous, SD rats; for LD50: tail vein, non-linear fitting. The method, then:
(§7) This experiment selected SD rats, each weighing 180 to 200 g. The rats were randomized, with 10 animals per group, half male and half female. […] The time of administration, time of loss of the righting reflex, time of recovery of the righting reflex, and time of walking were recorded. Adverse effects shown by the rats after administration were also recorded.
(§8) Time of loss of the righting reflex: the righting reflex is lost; a rat made lying on its back can maintain the lying for a period of 60 s;
(§9) Time of recovery of the righting reflex: the righting reflex ability is restored; a rat made lying on its back rights in less than 2 s;
(§10) Time of walking: spontaneous forwarding moving occurs, and muscle tension of the limbs recovers.
(§11) Using GraphPad Prism 5, ED50 and LD50 values were calculated from a non-linear fitting of number of anesthetic or dead animals resulting from various doses.

Another data set has as its system SD rats. As to the kind of experiment: Efficacy experiment on rats with prodrugs. Conditions: for ED50: Rattus norvegicus, non-linear fitting; for ED50 / Anesthesia induction time / Anesthesia maintenance time: SD rats, tail vein; for TI: therapeutic index, LD50/ED50, rats. In kind it is in vivo. On the procedure:
as §7, §8, §9, §10, §11

The conditions of data set [8]: injection; cited from earlier work.
[9] abbreviates: Intravenous Injection into Rats (10 mg/kg), analyte: prodrug.

Description for GABAA receptors: Various concentrations of test compounds and muscimol were added together to CHO/GABAA, and the current mediated by GABAA receptors was measured. Two measurements were performed for each concentration to obtain an average response current. The enhancement of the current mediated by GABAA receptors was calculated by the following equation: Enhancement (%)=100*(Test Compound−Control)/Control
The Control group is the peak current amplitude induced by muscimol, and the Test Compound group is the peak current amplitude co-induced by the test compounds and muscimol. The enhancement (%) was calculated for each concentration, and EC50 was calculated by normalization.

By EC50 is commonly meant the concentration at which the effect is half-maximal. As usually defined, the LD50 is the dose at which mortality reaches 50%. As usually defined, the ED50 is the dose that gives a 50% effect, or the effect in half of the subjects. Usually AUC(0-t) stands for the area under the concentration-time curve up to a stated or last time point. By clearance is commonly meant the rate of elimination divided by the concentration. Broadly, the half-life is how long it takes for the measured level to halve. Consider `CC(C)c1cccc([C@H](C)C2CC2)c1O` [Compound 16, 2-[(1R)-1-cyclopropylethyl]-6-isopropyl-phenol], for which the “Dose required to produce the same anesthetic effect” value with Beagle dogs is on record as 2 mg/kg. In addition, the “Effect on the heart rate and blood pressure” value in the data set with Beagle dogs (conscious Beagle dogs, Compound 16 2 mg/kg vs propofol 10 mg/kg) is reported as “smaller than that of propofol”. In the data set on GABAA receptors (patch clamp), the “Activity compared with propofol” value is on record as “lower ED50” and the “Effect on the ion channels of GABAA receptors” value is recorded as “activating effect”. Further, in the data set with GABAA receptors, the EC50 is 1.1 µM. In data set [1], this compound had an MTD of 6 mg/kg and an LD50 of 9.9 mg/kg. Besides, in the data set on ICR mice [2], the ED50 amounted to 1.5 mg/kg, the Anesthesia induction time is on record as less than 15.0 s, the Anesthesia maintenance time is 631.9 s and the HD7 was determined as 3.5 mg/kg. In the data set on ICR mice [2], this compound registered an SI of 4.1 and a TI of 6.7. In [3], this compound gave an exposure AUC(0-t) of 168 ng·h/mL, a clearance of 105 mL/min/kg and a half-life of 30 min.

For `CC[C@@H](C)c1cccc([C@@H](C)C2CC2)c1O` [Compound 29, 2-[(1S)-1-cyclopropylethyl]-6-[(1R)-1-methylpropyl]phenol], in [1], the MTD turned out to be 40 mg/kg and the LD50 was determined as 65.4 mg/kg. In the data set on ICR mice [2], the 50% effect level (ED50) was put at a dose of 10.1 mg/kg, the Anesthesia induction time is less than 15.0 s, the Anesthesia maintenance time was 1149.5 s and the SI is on record as 3.7. This compound also gave a TI with ICR mice [2] of 6.4. In data set [3], this compound gave an exposure AUC(0-t) of 114 ng·h/mL, a clearance of 145 mL/min/kg and a half-life of 24 min.

Take `CC(C)c1cccc([C@H](C)C2CC2)c1OP(=O)(O)O` [Compound 46, [[2-[(1R)-1-cyclopropylethyl]-6-isopropyl-phenoxy]-sodiooxy-phosphoryl]oxysodium]: in data set [4] (setting [9]), the exposure AUC(0-t) turned out to be 22400 ng·h/mL, the clearance amounted to 6.1 mL/min/kg and the half-life was 54 min. For the same compound, in [5], the MTD is 200 mg/kg and the LD50 was 225 mg/kg. Besides, the ED50 in the data set on ICR mice [6] (mice) came to 72.6 mg/kg. Besides, in the data set on ICR mice [6] (mice, prodrugs), the Anesthesia induction time came to 167.0 s and the Anesthesia maintenance time came out at 2204.6 s. In the data set with ICR mice [6] (prodrugs), the SI is listed as 2.4 and the TI came out at 3.1.

For the compound `CC(C)c1cccc([C@H](C)C2CC2)c1OCOP(=O)([O-])[O-].[Na+].[Na+]` [Compound 52], in data set [4] (setting [9]), the exposure AUC(0-t) was 15900 ng·h/mL, the clearance stood at 10.5 mL/min/kg and the half-life was 24 min. For the same compound, the median lethal dose (LD50) in data set [5] stood at 86.2 mg/kg. Further, in the data set with ICR mice [6] (mice), the ED50 worked out at 20.4 mg/kg. Moreover, in the data set on ICR mice [6] (mice, prodrugs), the Anesthesia induction time is 73.0 s, the Anesthesia maintenance time worked out at 1830.2 s and the MTD is given as 60.0 mg/kg. Also, in the data set with ICR mice [6] (prodrugs), the SI is reported as 3.3 and the TI turned out to be 4.2. Also, in data set [7], the MTD came out at 30 mg/kg and the LD50 was 61.4 mg/kg. Besides, in the data set with SD rats, the ED50 is 12.5 to 15 mg/kg, the Anesthesia induction time turned out to be 92.8 s and the Anesthesia maintenance time turned out to be 1946.3 s.

`CC(C)c1cccc([C@H](C)C2CC2)c1OCOC(=O)[C@H](Cc1ccccc1)NC(=O)OC(C)(C)C` [Compound 61, [2-[(1R)-1-cyclopropylethyl]-6-isopropyl-phenoxy]methyl(2S)-2-(tertbutoxycarbonylamino)-3-phenyl-propanoate]: the MTD in data set [5] and in [7] was 40 mg/kg each time. Besides, the LD50 came to 87.4 mg/kg in data set [5] and 60.8 mg/kg in [7]. Moreover, the ED50 amounted to 6.1 mg/kg in the data set on ICR mice [6] (mice) and 6.5 mg/kg in the data set on SD rats. For the same compound, the Anesthesia induction time in the data set with ICR mice [6] (mice, prodrugs) is listed as 17.5 s; in the data set with SD rats, 0.0 s. Also, the Anesthesia maintenance time in the data set with ICR mice [6] (mice, prodrugs) turned out to be 1109.2 s; in the data set on SD rats, 1474.9 s. Further, the “ED50 and efficacy compared with propofol” value in the data set with ICR mice [6] (mice, prodrugs) is “smaller ED50 value and higher efficacy than propofol”; in the data set on SD rats (rats, prodrugs) it was “smaller ED50 and higher efficacy than propofol”. For the same compound, the SI in the data set with ICR mice [6] (prodrugs) was 3.7; in the data set with SD rats (safety index, LD5/ED95, rats), 6.3. The TI with ICR mice [6] (prodrugs) is listed as 14.4; in the data set with SD rats, 9.4.

`CC(C)c1cccc(C(C)C)c1O` [Propofol, reference compound]: in [4] (iv, 10 mg/kg), the AUC(0-t) is 81.9 ng·h/mL, the clearance turned out to be 204 mL/min/kg and the half-life was 42 min. Besides, the ED50 in the data set with ICR mice [6] (mice) was determined as 11.7 mg/kg. Besides, in the data set with ICR mice [6] (mice, prodrugs), the Anesthesia induction time is listed as less than 15.0 s, the Anesthesia maintenance time is given as 652.5 s and the MTD was determined as 20.0 mg/kg. Further, the TI in the data set with ICR mice [6] (prodrugs) is 2.7. In data set [7], the MTD is 12.5 mg/kg and the LD50 stood at 19.1 mg/kg. In addition, in the data set with SD rats, the ED50 came to 5.7 mg/kg, the Anesthesia induction time worked out at 0.0 s, the Anesthesia maintenance time was found to be 652.0 s and the TI amounted to 3.4. Besides, the “Dose required to produce the same anesthetic effect” value in the data set on Beagle dogs was 10 mg/kg. Further, the “Effect on the ion channels of GABAA receptors” value in the data set with GABAA receptors (patch clamp) is on record as “activating effect”. The EC50 with GABAA receptors was determined as 5.3 µM. In the data set on ICR mice [2], the ED50 was found to be 11.7 mg/kg, the Anesthesia induction time is less than 15.0 s, the Anesthesia maintenance time was found to be 652.5 s and the HD7 stood at 14.0 mg/kg. Also, the TI in the data set with ICR mice [2] is given as 2.7. In data set [3], this compound had an AUC(0-t) of 81.9 ng·h/mL, a clearance of 204 mL/min/kg and a half-life of 42 min. In addition, the “Patients on injections feeling certain pain or discomfort” value in [8] was “approximately 70%”.
